Where a name gives a salt, the structure may show the parent alone. Residues, ends and D or L forms follow the SMILES beside them. *: point of attachment. Dansyl = CN(C)c1cccc2c(S(=O)(=O)*)cccc12; Pyrrolidide = C1CCN(*)C1
Target: T1, thrombin (Bos taurus, UniProt P00735)
T1 construct: mature alpha-thrombin (light plus heavy chain) cut from prothrombin
Experiment: Fibrinogen coagulation time (thrombin-induced clotting of fibrinogen)
Format: biochemical
Conditions: bovine fibrinogen, borate saline buffer pH 7.4, thrombin 0.1 ml of 5 units/ml, 25°C; control coagulation time 50-55 seconds; read-out: Concentration required to prolong the coagulation time by a factor of 2
Experimental: The antithrombotic activities of the N^2 -dansyl-L-arginine derivatives of this invention were compared with those of a known antithrombotic agent, (N^2 -(p-tolylsulfonyl)-L-arginine methyl ester). by determining the fibrinogen coagulation time. The measurement of the fibrinogen coagulation time was conducted as follows:
Immediately after mixing, the reaction mixture was transferred from the ice bath to a bath thermostated at 25°C. Coagulation times were taken as the period between the time of transference to the 25°C bath and the time of the first appearance of fibrin threads.
The term "concentration required to prolong the coagulation time by a factor of two" is the concentration of an active ingredient required to prolong the normal coagulation time 50-55 seconds to 100-110 seconds.

Compound	IC (2-fold clotting time)
CCOC(=O)[C@H](CCCNC(=N)N)NS(=O)(=O)c1cccc2c(N(C)C)cccc12 [Sample 2, N^2 -dansyl-L-arginine ethyl ester dihydrochloride]	8 µM
CCCOC(=O)[C@H](CCCNC(=N)N)NS(=O)(=O)c1cccc2c(N(C)C)cccc12 [Sample 3, N^2 -dansyl-L-arginine n-propyl ester]	2 µM
CC(C)OC(=O)[C@H](CCCNC(=N)N)NS(=O)(=O)c1cccc2c(N(C)C)cccc12 [Sample 4, N^2 -dansyl-L-arginine isopropyl ester dihydrochloride]	30 µM
CC(C)COC(=O)[C@H](CCCNC(=N)N)NS(=O)(=O)c1cccc2c(N(C)C)cccc12 [Sample 6, N^2 -dansyl-L-arginineisobutyl ester di(p-toluene sulfonate)]	110 µM
CC=CCOC(=O)[C@H](CCCNC(=N)N)NS(=O)(=O)c1cccc2c(N(C)C)cccc12 [Sample 12, N^2 -dansyl-L-arginine crotyl ester]	2 µM
C#CCCOC(=O)[C@H](CCCNC(=N)N)NS(=O)(=O)c1cccc2c(N(C)C)cccc12 [Sample 13, N^2-dansyl-L-arginine 3-butynyl ester]	4 µM
CN(C)c1cccc2c(S(=O)(=O)N[C@@H](CCCNC(=N)N)C(=O)OC3CCCCC3)cccc12 [Sample 14]	60 µM
CN(C)c1cccc2c(S(=O)(=O)N[C@@H](CCCNC(=N)N)C(=O)OCC3CCCO3)cccc12 (stereo partly shown) [Sample 15]	20 µM
COCCOC(=O)[C@H](CCCNC(=N)N)NS(=O)(=O)c1cccc2c(N(C)C)cccc12 [Sample 16, N^2-dansyl-L-arginine 2-methoxyethyl ester]	5 µM
CN(C)c1cccc2c(S(=O)(=O)N[C@@H](CCCNC(=N)N)C(=O)OCCCCCl)cccc12 [Sample 18, N^2-dansyl-L-arginine 4-chlorobutyl ester]	7 µM
CCC(COC(=O)[C@H](CCCNC(=N)N)NS(=O)(=O)c1cccc2c(N(C)C)cccc12)[N+](=O)[O-] (stereo partly shown) [Sample 19]	200 µM
CCNC(=O)[C@H](CCCNC(=N)N)NS(=O)(=O)c1cccc2c(N(C)C)cccc12 [Sample 20, N^2 -dansyl-N-ethyl-L-argininamide monohydrate]	100 µM
CCCNC(=O)[C@H](CCCNC(=N)N)NS(=O)(=O)c1cccc2c(N(C)C)cccc12 [Sample 21, N^2 -dansyl-N-(n-propyl)-L-argininamide monohydrate]	15 µM
CCCCNC(=O)[C@H](CCCNC(=N)N)NS(=O)(=O)c1cccc2c(N(C)C)cccc12 [Sample 22, N^2 -dansyl-N-(n-butyl)-L-argininamide monohydrate]	25 µM
CCCCCNC(=O)[C@H](CCCNC(=N)N)NS(=O)(=O)c1cccc2c(N(C)C)cccc12 [Sample 23]	125 µM
CCCCCCNC(=O)[C@H](CCCNC(=N)N)NS(=O)(=O)c1cccc2c(N(C)C)cccc12 [Sample 24, N^2 -dansyl-N-(n-hexyl)-L-argininamide monohydrate]	20 µM
CCCCCCCNC(=O)[C@H](CCCNC(=N)N)NS(=O)(=O)c1cccc2c(N(C)C)cccc12 [Sample 25, N^2 -dansyl-N-(n-heptyl)-L-argininamide]	100 µM
CC(C)NC(=O)[C@H](CCCNC(=N)N)NS(=O)(=O)c1cccc2c(N(C)C)cccc12 [Sample 26, N^2 -dansyl-N-isopropyl-L-argininamide]	1000 µM
CC(C)CNC(=O)[C@H](CCCNC(=N)N)NS(=O)(=O)c1cccc2c(N(C)C)cccc12 [Sample 27, N^2 -dansyl-N-isobutyl-L-argininamide]	100 µM

Compound	IC (2-fold clotting time)
COCCNC(=O)[C@H](CCCNC(=N)N)NS(=O)(=O)c1cccc2c(N(C)C)cccc12 [Sample 28, N^2-dansyl-N-(2-methoxyethyl)-L-argininamide dihydrate]	4 µM
COCCCNC(=O)[C@H](CCCNC(=N)N)NS(=O)(=O)c1cccc2c(N(C)C)cccc12 [Sample 29]	65 µM
CCOCCNC(=O)[C@H](CCCNC(=N)N)NS(=O)(=O)c1cccc2c(N(C)C)cccc12 [Sample 30, N^2-dansyl-N-(2-ethoxyethyl)-L-argininamide]	5 µM
CCOC(=O)CNC(=O)[C@H](CCCNC(=N)N)NS(=O)(=O)c1cccc2c(N(C)C)cccc12 [Sample 31, N^2-dansyl-N-(2-ethoxycarbonylmethyl)-L-argininamide diacetate] (Dansyl-Arg-Gly-OEt)	160 µM
COC(=O)CCNC(=O)[C@H](CCCNC(=N)N)NS(=O)(=O)c1cccc2c(N(C)C)cccc12 [Sample 32, N^2-dansyl-N-(2-methoxycarbonylethyl)-L-argininamide]	22 µM
CCOC(=O)CCNC(=O)[C@H](CCCNC(=N)N)NS(=O)(=O)c1cccc2c(N(C)C)cccc12 [Sample 33, N^2-dansyl-N-(2-ethoxycarbonylethyl)-L-argininamide diacetate]	5 µM
CCOC(=O)CCCNC(=O)[C@H](CCCNC(=N)N)NS(=O)(=O)c1cccc2c(N(C)C)cccc12 [Sample 34]	500 µM
C=CCNC(=O)[C@H](CCCNC(=N)N)NS(=O)(=O)c1cccc2c(N(C)C)cccc12 [Sample 35, N^2 -dansyl-N-allyl-L-argininamide]	10 µM
CN(C)c1cccc2c(S(=O)(=O)N[C@@H](CCCNC(=N)N)C(=O)NC3CC3)cccc12 [Sample 36]	200 µM
CN(C)c1cccc2c(S(=O)(=O)N[C@@H](CCCNC(=N)N)C(=O)NCC3CCCCC3)cccc12 [Sample 37, N^2 -dansyl-N-cyclohexylmethyl-L-argininamide]	40 µM
CN(C)c1cccc2c(S(=O)(=O)N[C@@H](CCCNC(=N)N)C(=O)Nc3ccccc3)cccc12 [Sample 38]	100 µM
CN(C)c1cccc2c(S(=O)(=O)N[C@@H](CCCNC(=N)N)C(=O)NCc3ccccc3)cccc12 [Sample 39]	50 µM
CN(C)c1cccc2c(S(=O)(=O)N[C@@H](CCCNC(=N)N)C(=O)NCCc3ccccc3)cccc12 [Sample 40, N^2 -dansyl-N-(β-phenylethyl)-L-argininamide dihydrate]	150 µM
CN(C)c1cccc2c(S(=O)(=O)N[C@@H](CCCNC(=N)N)C(=O)NCCCc3ccccc3)cccc12 [Sample 41]	27 µM
CN(C)c1cccc2c(S(=O)(=O)N[C@@H](CCCNC(=N)N)C(=O)NCCC(=O)Nc3ccccc3)cccc12 [Sample 42, N^2-dansyl-N-(2-phenylcarbamoylethyl)-L-argininamide diacetate]	> 500 µM
CN(C)c1cccc2c(S(=O)(=O)N[C@@H](CCCNC(=N)N)C(=O)NCC(=O)N3CCCC3)cccc12 [Sample 43] (Dansyl-Arg-Gly-Pyrrolidide)	370 µM
CCN(CC)C(=O)[C@H](CCCNC(=N)N)NS(=O)(=O)c1cccc2c(N(C)C)cccc12 [Sample 45, N^2 -dansyl-N,N-diethyl-L-argininamide diacetate]	55 µM
CCCCN(CCCC)C(=O)[C@H](CCCNC(=N)N)NS(=O)(=O)c1cccc2c(N(C)C)cccc12 [Sample 46]	39 µM

Source: patent US3978045A, “N^2 -dansyl-L-arginine derivatives, and the pharmaceutically acceptable acid addition salts thereof” (priority 1973, dated 1976)
